Measured values published in patent publication US20090143419A1, “METHODS AND COMPOSITIONS FOR CONTROLLING ECTOPARASITES” (HATCHTECH PTY LTD, priority 2005, published 2009).

Experiments:
[1] = test system: lice eggs; experiment: Time-course in vitro lice egg hatching assay; format: in vivo, clothing lice (Pediculus humanus humanus); settings: for % Inhibition of lice egg hatching (maximum over the time-course): 10 mM
[2] = test system: Helicoverpa armigera eggs (Tatura×Toowoomba strains); experiment: Egg hatching of Helicoverpa armigera; settings: for % Inhibition: relative to control
Description: Several hundred Helicoverpa armigera eggs (Tatura×Toowoomba strains) were collected, that had been laid on fine mesh cloth over a 24 hour period.
Batches of Helicoverpa eggs were exposed to a specific inhibitor solution for between 2-10 seconds the excess solution drained by blotting with dry tissue paper. The egg masses were then placed in a humid box at 25 degrees until egg hatch. Control eggs were exposed to absolute methanol as described above.

[3] = test system: B. ovis eggs; experiment: Egg hatching in Bovicola ovis; format: in vivo; settings: 10 mM, 10 eggs per replicate
Description: B. ovis eggs were collected from the wool of sheep that were infested with this parasite. The eggs were collected using forceps and with the aid of a dissecting microscope and placed in 24 well tissue culture plates in duplicate lots of 10 eggs per replicate. The eggs were then exposed to either methanol alone (solvent control) or the test compounds for either 10 minutes or 1 minute or left as untreated controls before being removed from the wells and placed into individual glass vials containing a diet at the base of the tube. The tubes were placed in plastic containers containing a salt solution (to keep humidity constant at 68%) and the containers maintained at a temperature 32° C. The eggs were monitored for hatching over the following 12 days and % hatch inhibition determined in comparison to the controls.

[4] = test system: Plutella xylostella eggs (Waite strain); experiment: Effect of added metal ions (FeSO4) on inhibition of Plutella xylostella egg hatching; format: in vivo
Description: Within 24 hours of collection the following experimental design was chosen. Batches of eggs were exposed to either 10 mM 6,6′-dimethyl-2,2′-dipyridyl or solvent only (methanol) for 2 seconds. All batches of eggs were allowed to air dry for 20 minutes at room temperature. The eggs were then given a 2 second exposure to FeSO4 at either 10, 5 or 1 mM, air dried and put in the incubator at 24° C. and allowed to hatch over the next 6 days. In addition, a positive control of 10 mM 6,6′-dimethyl-2,2′-dipyridyl was set up in which eggs were exposed to this compound for 2 seconds, air dried and placed in the incubator.
Within 24 hours of collection the following experimental design was chosen. Batches of eggs were exposed to 10 mM 5,5′dimethyl-2,2′-dipyridyl or solvent only (methanol) for 2 seconds. All batches of eggs were allowed to air dry for 20 minutes at room temperature. The eggs were then given a 2 second exposure to FeSO4 at 10, 5 or 1 mM, air dried and put in an incubator at 24° C. and allowed to hatch over the next 6 days. In addition, a positive control of 10 mM, 5,5′-dimethyl-2,2′-dipyridyl was set up in which eggs were exposed to this compound for 2 seconds, air dried and placed in the incubator.

[5] = test system: Plutella xylostella eggs (Waite strain); experiment: Egg hatching of Plutella xylostella
Description: The egg masses were then placed in a humid box at 25 degrees until egg hatch. Control eggs were exposed to absolute methanol as described above. At day 6 post laying the eggs were assessed from the different treatments and the percentage of egg hatch determined relative to the control as shown in Table 9.
Batches of Plutella eggs that were laid on either fine cloth or parafilm were dipped in a specific inhibitor solution for between 2-10 seconds, the excess solution was drained by blotting with dry tissue paper. The egg masses were then placed in a humid box at 25 degrees until egg hatch. Control eggs were exposed to absolute methanol as described above or not treated. At day 6 post laying the eggs were assessed from the different treatments and the percentage of egg hatch determined relative to the controls as shown in Tables 10 and 11.
Batches of Plutella eggs that were laid on fine cloth were dipped in a specific inhibitor solution for approximately 2 seconds, the excess solution was drained by blotting with dry tissue paper. The egg masses were then placed in a humid box at 25 degrees until egg hatch. Control eggs were exposed to absolute methanol as described above or not treated. At day 6 post laying the eggs were assessed from the different treatments and the percentage of egg hatch determined relative to the control as shown in Table 12.
The egg masses were then placed in a humid box at 25 degrees until egg hatch. Control eggs were exposed to absolute ethanol as described above. On day 6 post laying the eggs were assessed from the different treatments and the percentage of egg hatch determined relative to the control.

[6] = Table 18, 10 mM inhibitor alone, (+ve) control
[7] = Table 18, 10 mM inhibitor followed by 2 second exposure to 1 mM FeSO4
[8] = Table 18, 10 mM inhibitor followed by 2 second exposure to 5 mM FeSO4
[9] = Table 18, 10 mM inhibitor followed by 2 second exposure to 10 mM FeSO4
[10] = Table 18, 10 mM inhibitor followed by 2 second exposure to MEOH
[11] = Table 10, 1 mM, eggs laid on cloth
[12] = Table 10, 1 mM, eggs laid on cloth, relative to controls
[13] = Table 10, 10 mM, eggs laid on cloth
[14] = Table 10, 10 mM, eggs laid on cloth, relative to controls
[15] = Table 11, 1 mM, eggs laid on parafilm
[16] = Table 11, 1 mM, eggs laid on parafilm, relative to controls
[17] = Table 11, 10 mM, eggs laid on parafilm
[18] = Table 11, 10 mM, eggs laid on parafilm, relative to controls
[19] = Table 12, 0.01 mM, cloth, dipped approximately 2 seconds
[20] = Table 12, 0.1 mM, cloth, dipped approximately 2 seconds
[21] = Table 12, 1 mM, cloth, dipped approximately 2 seconds
[22] = Table 12, 10 mM, cloth, dipped approximately 2 seconds
[23] = Table 13, 0.1 mM, cloth, dipped approximately 2 seconds
[24] = Table 13, 1 mM, cloth, dipped approximately 2 seconds
[25] = Table 14, 1 mM, exposed 2-10 seconds, day 6 post laying
[26] = Table 14, 10 mM, exposed 2-10 seconds, day 6 post laying
[27] = Table 17, 10 mM inhibitor alone, (+ve) control
[28] = Table 17, 10 mM inhibitor followed by 2 second exposure to 1 mM FeSO4
[29] = Table 17, 10 mM inhibitor followed by 2 second exposure to 5 mM FeSO4
[30] = Table 17, 10 mM inhibitor followed by 2 second exposure to 10 mM FeSO4
[31] = Table 17, 10 mM inhibitor followed by 2 second exposure to MEOH
[32] = Table 9, 0.001 mM, dipped 2-10 seconds, day 6 post laying
[33] = Table 9, 0.01 mM, dipped 2-10 seconds, day 6 post laying
[34] = Table 9, 0.1 mM, dipped 2-10 seconds, day 6 post laying
[35] = Table 9, 1 mM, dipped 2-10 seconds, day 6 post laying
[36] = Table 9, 10 mM, dipped 2-10 seconds, day 6 post laying
[37] = Table 10, 0.01 mM, eggs laid on cloth
[38] = Table 10, 0.1 mM, eggs laid on cloth
[39] = Table 11, 0.01 mM, eggs laid on parafilm
[40] = Table 11, 0.1 mM, eggs laid on parafilm

## Cc1ccc(-c2ccc(C)cn2)nc1 [5,5′-dimethyl-2,2′-dipyridyl]
[1]
  % Inhibition of lice egg hatching (maximum over the time-course): 100%
[2]; Table 15, 10 mM
  Number hatched: 0
  Number unhatched: 42
[3]; 1 minute exposure
  Number unhatched: 10
[3]; 10 minute exposure
  Number unhatched: 10
[4]; [6]
  % Inhibition: 100%
  Number hatched: 0
  Number unhatched: 38
[4]; [7]
  Number hatched: 39
  Number unhatched: 0
[4]; Table 18, 10 mM inhibitor followed by 2 second exposure to 1 mM FeSO4, relative to the FeSO4 only controls
  % Inhibition: 0%
[4]; [8]
  Number hatched: 25
  Number unhatched: 0
[4]; Table 18, 10 mM inhibitor followed by 2 second exposure to 5 mM FeSO4, relative to the FeSO4 only controls
  % Inhibition: 0%
[4]; [9]
  Number hatched: 23
  Number unhatched: 2
[4]; Table 18, 10 mM inhibitor followed by 2 second exposure to 10 mM FeSO4, relative to the FeSO4 only controls
  % Inhibition: 8%
[4]; [10]
  Number hatched: 16
  Number unhatched: 19
[5]; [11]
  Number hatched: 5
  Number unhatched: 22
[5]; [12]
  % Inhibition: 78%
[5]; [13]
  Number hatched: 0
  Number unhatched: 21
[5]; [14]
  % Inhibition: 100%
[5]; [15]
  Number hatched: 18
  Number unhatched: 151
[5]; [16]
  % Inhibition: 88%
[5]; [17]
  Number hatched: 0
  Number unhatched: 142
[5]; [18]
  % Inhibition: 100%
[5]; [19]
  Number hatched: 37
  Number unhatched: 3
[5]; [20]
  Number hatched: 22
  Number unhatched: 16
[5]; [21]
  Number hatched: 1
  Number unhatched: 45
[5]; [22]
  Number hatched: 0
  Number unhatched: 68
[5]; [23]
  Number hatched: 32
  Number unhatched: 52
[5]; [24]
  Number hatched: 2
  Number unhatched: 118

## Cc1cccc(-c2cccc(C)n2)n1 [6,6′-dimethyl-2,2′-dipyridyl]
[1]
  % Inhibition of lice egg hatching (maximum over the time-course): 100%
[1]; Table 6, […], per replicate
  H (number of eggs successfully hatched): 0
  Ph (number of eggs partly hatched): 0
[1]; in vivo
  lice egg hatching: completely inhibited
[2]; Table 14, 0.001 mM
  % Inhibition: 0%
[2]; Table 14, 0.01 mM
  % Inhibition: 0%
[2]; Table 14, 0.1 mM
  % Inhibition: 0%
[2]; [25]
  Number hatched: 4
  Number unhatched: 140
[2]; Table 14, 1 mM
  % Inhibition: 97%
[2]; Table 14, 1 mM, listed as 6,6′dimethyl-2,2′dipyridyl
  % Inhibition: significantly inhibit egg hatching
[2]; [26]
  Number hatched: 7
  Number unhatched: 98
[2]; Table 14, 10 mM
  % Inhibition: 94%
[2]; Table 14, 10 mM, listed as 6,6′dimethyl-2,2′dipyridyl
  % Inhibition: significantly inhibit egg hatching
[2]; Table 15, 0.1 mM
  Number hatched: 70
  Number unhatched: 0
[2]; Table 15, 1 mM
  Number hatched: 2
  Number unhatched: 61
[2]; Table 15, 10 mM
  Number hatched: 3
  Number unhatched: 48
[3]; 1 minute exposure
  Number unhatched: 10
[3]; 10 minute exposure
  Number unhatched: 10
[4]; [27]
  % Inhibition: 100%
  Number hatched: 0
  Number unhatched: 44
[4]; [28]
  Number hatched: 33
  Number unhatched: 1
[4]; Table 17, 10 mM inhibitor followed by 2 second exposure to 1 mM FeSO4, relative to the FeSO4 controls
  % Inhibition: 3%
[4]; [29]
  Number hatched: 25
  Number unhatched: 0
[4]; Table 17, 10 mM inhibitor followed by 2 second exposure to 5 mM FeSO4, relative to the FeSO4 controls
  % Inhibition: 0%
[4]; [30]
  Number hatched: 12
  Number unhatched: 19
[4]; Table 17, 10 mM inhibitor followed by 2 second exposure to 10 mM FeSO4, relative to the FeSO4 controls
  % Inhibition: 38%
[4]; [31]
  Number hatched: 3
  Number unhatched: 28
[5]; [32]
  Number hatched: 11
  Number unhatched: 6
[5]; Table 9, 0.001 mM, relative to control (100% MeOH)
  % Inhibition: 0%
[5]; [33]
  Number hatched: 13
  Number unhatched: 7
[5]; Table 9, 0.01 mM, relative to control (100% MeOH)
  % Inhibition: 0%
[5]; [34]
  Number hatched: 23
  Number unhatched: 29
[5]; Table 9, 0.1 mM, relative to control (100% MeOH)
  % Inhibition: 0%
[5]; [35]
  Number hatched: 0
  Number unhatched: 26
[5]; Table 9, 1 mM, relative to control (100% MeOH)
  % Inhibition: 100%
[5]; Table 9, 1 mM, relative to control (100% MeOH), listed as 6,6′dimethyl-2,2′dipyridyl
  % Inhibition: strong ovicidal effects
[5]; [36]
  Number hatched: 0
  Number unhatched: 79
[5]; Table 9, 10 mM, relative to control (100% MeOH)
  % Inhibition: 100%
[5]; Table 9, 10 mM, relative to control (100% MeOH), listed as 6,6′dimethyl-2,2′dipyridyl
  % Inhibition: strong ovicidal effects
[5]; [37]
  Number hatched: 23
  Number unhatched: 4
[5]; Table 10, 0.01 mM, eggs laid on cloth, relative to controls
  % Inhibition: 12%
[5]; [38]
  Number hatched: 49
  Number unhatched: 49
[5]; Table 10, 0.1 mM, eggs laid on cloth, relative to controls
  % Inhibition: 0%
[5]; [11]
  Number hatched: 0
  Number unhatched: 23
[5]; [12]
  % Inhibition: 100%
[5]; [13]
  Number hatched: 0
  Number unhatched: 53
[5]; [14]
  % Inhibition: 100%
[5]; [39]
  Number hatched: 92
  Number unhatched: 4
[5]; Table 11, 0.01 mM, eggs laid on parafilm, relative to controls
  % Inhibition: 0%
[5]; [40]
  Number hatched: 65
  Number unhatched: 70
[5]; Table 11, 0.1 mM, eggs laid on parafilm, relative to controls
  % Inhibition: 7%
[5]; [15]
  Number hatched: 0
  Number unhatched: 63
[5]; [16]
  % Inhibition: 100%
[5]; [17]
  Number hatched: 0
[5]; [18]
  % Inhibition: 100%
